“Also recorded” adds a separate entry of the source.
Key:
[1] = system: Normal keratinocyte cells; assay: Effect of erlotinib on 2D non-diseased keratinocytes (proliferation, Loricrin expression); assay type: cell-based
Method: Normal keratinocyte cells were cultured and treated with vehicle or erlotinib at 100, 500 and 1000 nM. The proliferation rate of the cells was determined.

[2] = system: Non-diseased 3D human skin equivalent (HSE); assay: Effect of erlotinib on non-diseased 3D human skin equivalent; assay type: cell-based; conditions: 100 nM erlotinib every 72 hours until harvest at day 10
Method: Human skin equivalents were prepared by methods known in the art. Examples of such methods are disclosed in Mieremet et al. Int. J. Mol. Sci. (2021) 22(11):5790. Non-diseased cells were plated for 3D human skin equivalent (HSE) and treated with 100 nM erlotinib from the time of lifting to the air-liquid interface every 72 hours until harvest at day 10. The samples were subjected to protein, mRNA, immunofluorescence and morphological analysis.

EI derived keratinocyte = assay: Effect of erlotinib on 2D cultured keratinocytes derived from epidermolytic ichthyosis (colony density); assay type: cell-based, human; conditions: 100 nM erlotinib; microscope and fold change
Method: Tissue from non-diseased donors and EI patients were cultured and treated with 100 nM erlotinib.

3D EI HSE = assay: Effect of erlotinib on EI 3D HSE (morphological analysis); assay type: cell-based, human; conditions: 100 nM erlotinib every 72 hours until harvest at day 12; EI constructs
Method: Non-diseased cells and cells from an EI patient were plated for 3D human skim equivalent (HSE)and treated with 100 nM erlotinib from the time of lifting to the air-liquid interface every 72 hours until harvest at day 12. The samples were subjected to morphological analysis. […] (FIGS. 4A-B).

non-diseased 3D HSE = assay: TEER epidermal barrier function, non-diseased 3D HSE; assay type: cell-based, human; conditions: 10 nM and 100 nM erlotinib
EI 3D HSE = assay: TEER epidermal barrier function, EI 3D HSE; assay type: cell-based, human; conditions: 10 nM and 100 nM erlotinib
[3] = system: Non-diseased 3D human skin equivalent (HSE); assay: Gene expression analysis, non-diseased 3D HSE; assay type: cell-based
Method: (§1) Non-diseased cells and cells from an EI patient were plated for 3D human skin equivalent (HSE)and treated with the erlotinib at 10 nM or 100 nM from the time of lifting to the air-liquid interface every 72 hours until harvest at day 10. The samples were subjected to gene expression analysis. […] Markers of terminal differentiation such as fillaggrin (FLG) and loricrin (LOR) and markers of cell adhesion such as desmoglein 1 (DSG 1) were also modified.
Gene expression results for non-diseased tissue following treatment with erlotinib: […]

[4] = system: EI patient 3D human skin equivalent (HSE); assay: Gene expression analysis, EI patient 3D HSE; assay type: cell-based; conditions: for CDN4 gene expression / CLDN1 gene expression / DSC1 gene expression / DSG1 gene expression / FLG gene expression / IVL gene expression / KRT10 gene expression / KRT16 gene expression / LOR gene expression / OCLN gene expression / TJP1 gene expression: Control 1.00
Method: as §1
Gene expression results for EI patient tissue following treatment with erlotinib: […]

[5] = system: Hairless Skh-1 mice treated with TPA; assay: Mouse model of hyperkeratosis (TPA-induced skin inflammation); assay type: in vivo; conditions: composition comprising 0.4%, 1.0% or 4.0% erlotinib daily starting on Day 8
Method: Hairless Skh-1 mice were treated with 12-O-Tetradecanoylphorbol-13-acetate (TPA) daily for 7 days than every other day for the next 7 days to induce skin inflammation. The mice were then treated with vehicle or a composition comprising 0.4%, 1.0% or 4.0% erlotinib daily starting on Day 8. The mice were assessed for degrees of inflammation, transepidermal water loss and expression of p^Y1068EGFR, EGFR, KRT10 and KRT16.

[6] = harvest day 10, listed as Erlotinib
[7] = Erlo 10 nM, NHEK83.19 non-diseased 3D HSE, Control 1.00
[8] = Erlo 10 nM, NUTC394.14 non-diseased 3D HSE, Control 1.00
[9] = Erlo 10 nM, NUTC439.14 non-diseased 3D HSE, Control 1.0
[10] = Erlo 100 nM, NHEK83.19 non-diseased 3D HSE, Control 1.00
[11] = Erlo 100 nM, NUTC394.14 non-diseased 3D HSE, Control 1.00
[12] = Erlo 100 nM, NUTC439.14 non-diseased 3D HSE, Control 1.0
[13] = Erlo 10 nM, CMH98.11 EI patient 3D HSE
[14] = Erlo 10 nM, CMH101.11 EI patient 3D HSE
[15] = Erlo 10 nM, CMH102.11 EI patient 3D HSE
[16] = Erlo 100 nM, CMH98.11 EI patient 3D HSE
[17] = Erlo 100 nM, CMH101.11 EI patient 3D HSE
[18] = Erlo 100 nM, CMH102.11 EI patient 3D HSE

## C#Cc1cccc(Nc2ncnc3cc(OCCOC)c(OCCOC)cc23)c1 [erlotinib]
[1]; following exposure to erlotinib
  keratinocyte differentiation: keratinocyte differentiation is increased
[1]; high dose erlotinib
  Loricrin expression: increased Loricrin expression
[1]; medium and high doses of erlotinib (tested 100, 500 and 1000 nM) vs vehicle
  keratinocyte proliferation: decreased keratinocyte proliferation
[2]
  desmosomal organization: desmosomal organization is enhanced
  terminal differentiation: enhances terminal differentiation
EI derived keratinocyte
  EI derived keratinocyte colony density: marked reduction in colony density; also recorded: markedly reduced
3D EI HSE
  morphologic change in the upper epidermis: marked morphologic change
non-diseased 3D HSE; harvest day 10
  epidermal barrier function (TEER): does not impair epidermal barrier function
non-diseased 3D HSE; [6]
  epidermal barrier function (TEER): did not produced a significant change in TEER values
EI 3D HSE; harvest day 10
  epidermal barrier function (TEER): does not impair epidermal barrier function
EI 3D HSE; [6]
  epidermal barrier function (TEER): did not produced a significant change in TEER values
[3]; [7]
  CDN4 gene expression: 2.92
  CLDN1 gene expression: 1.30
  DSC1 gene expression: 0.60
  DSG1 gene expression: 0.73
  FLG gene expression: 0.51
  IVL gene expression: 2.15
  KRT10 gene expression: 0.28
  KRT16 gene expression: 1.70
  LOR gene expression: 0.03
  OCLN gene expression: 1.76
  TJP1 gene expression: 1.65
[3]; [8]
  CDN4 gene expression: 2.87
  CLDN1 gene expression: 1.28
  DSC1 gene expression: 0.59
  DSG1 gene expression: 0.72
  FLG gene expression: 0.50
  IVL gene expression: 2.11
  KRT10 gene expression: 0.27
  KRT16 gene expression: 1.67
  LOR gene expression: 0.03
  OCLN gene expression: 1.73
  TJP1 gene expression: 1.62
[3]; [9]
  CDN4 gene expression: 0.7
  CLDN1 gene expression: 1.9
  DSC1 gene expression: 1.9
  DSG1 gene expression: 2.1
  FLG gene expression: 1.0
  IVL gene expression: 0.9
  KRT10 gene expression: 2.1
  KRT16 gene expression: 0.9
  LOR gene expression: 1.4
  OCLN gene expression: 0.7
  TJP1 gene expression: 0.7
[3]; [10]
  CDN4 gene expression: 1.65
  CLDN1 gene expression: 1.24
  DSC1 gene expression: 2.69
  DSG1 gene expression: 2.77
  FLG gene expression: 2.37
  IVL gene expression: 1.21
  KRT10 gene expression: 11.50
  KRT16 gene expression: 1.00
  LOR gene expression: 8.19
  OCLN gene expression: 1.36
  TJP1 gene expression: 1.58
[3]; [11]
  CDN4 gene expression: 1.54
  CLDN1 gene expression: 1.16
  DSC1 gene expression: 2.52
  DSG1 gene expression: 2.59
  FLG gene expression: 2.21
  IVL gene expression: 1.14
  KRT10 gene expression: 10.75
  KRT16 gene expression: 0.89
  LOR gene expression: 7.66
  OCLN gene expression: 1.27
  TJP1 gene expression: 1.48
[3]; [12]
  CDN4 gene expression: 1.4
  CLDN1 gene expression: 29.4
  DSC1 gene expression: 29.4
  DSG1 gene expression: 9.3
  FLG gene expression: 25.9
  IVL gene expression: 1.5
  KRT10 gene expression: 17.2
  KRT16 gene expression: 1.6
  OCLN gene expression: 1.6
  TJP1 gene expression: 1.3
[3]; normal human keratinocytes in 3D culture, erlotinib 10 nM or 100 nM
  keratin 10 (KRT10) expression: marked increase
[4]; EI derived human keratinocytes in 3D culture, erlotinib 10 nM or 100 nM
  keratin 10 (KRT10) expression: marked increase
[4]; [13]
  CDN4 gene expression: 0.7
  CLDN1 gene expression: 0.9
  DSC1 gene expression: 0.8
  DSG1 gene expression: 1.8
  FLG gene expression: 1.2
  IVL gene expression: 1.3
  KRT10 gene expression: 0.9
  KRT16 gene expression: 1.3
  LOR gene expression: 1.2
  OCLN gene expression: 0.7
  TJP1 gene expression: 0.7
[4]; [14]
  CDN4 gene expression: 0.96
  CLDN1 gene expression: 0.71
  DSC1 gene expression: 0.65
  DSG1 gene expression: 1.11
  FLG gene expression: 1.08
  IVL gene expression: 1.04
  KRT10 gene expression: 1.00
  KRT16 gene expression: 1.63
  LOR gene expression: 1.10
  OCLN gene expression: 0.81
  TJP1 gene expression: 0.55
[4]; [15]
  CDN4 gene expression: 1.86
  CLDN1 gene expression: 0.79
  DSC1 gene expression: 0.79
  DSG1 gene expression: 4.72
  FLG gene expression: 1.22
  IVL gene expression: 1.58
  KRT10 gene expression: 2.27
  KRT16 gene expression: 1.31
  LOR gene expression: 0.90
  OCLN gene expression: 1.15
  TJP1 gene expression: 1.13
[4]; [16]
  CDN4 gene expression: 1.8
  CLDN1 gene expression: 1.6
  DSC1 gene expression: 1.7
  DSG1 gene expression: 1.9
  FLG gene expression: 1.1
  IVL gene expression: 2.3
  KRT10 gene expression: 1.6
  KRT16 gene expression: 0.8
  LOR gene expression: 0.6
  OCLN gene expression: 1.2
  TJP1 gene expression: 1.2
[4]; [17]
  CDN4 gene expression: 0.72
  CLDN1 gene expression: 0.37
  DSC1 gene expression: 6.09
  DSG1 gene expression: 2.57
  FLG gene expression: 0.72
  IVL gene expression: 0.83
  KRT10 gene expression: 5.78
  KRT16 gene expression: 0.85
  LOR gene expression: 0.95
  OCLN gene expression: 0.57
  TJP1 gene expression: 0.57
[4]; [18]
  CDN4 gene expression: 3.17
  CLDN1 gene expression: 2.20
  DSC1 gene expression: 2.20
  DSG1 gene expression: 6.61
  FLG gene expression: 2.06
  IVL gene expression: 1.76
  KRT10 gene expression: 6.44
  KRT16 gene expression: 1.14
  LOR gene expression: 0.79
  OCLN gene expression: 1.92
  TJP1 gene expression: 1.44
[5]; TPA-treated Skh-1 mice
  skin inflammation: dose dependent reduction of skin inflammation
  transepithelial water loss: significantly decreasing transepithelial water loss
[5]; Western blot
  expression of p^Y1068EGFR, EGFR, KRT10 and KRT16: dose dependent change

Source: US20230113775A1, “ANHYDROUS COMPOSITIONS OF EGFR INHIBITORS AND METHODS OF USE” (priority 2021, published 2023)
